Experimental data from the Kinase Knowledgebase extract (Sharma et al. 2016).

How the values were obtained:
MAPK14 = MAPK14 (UniProt Q16539); experiment: Inhibition of MAPK14 Kinase Activity
MAPK14 (human) = MAPK14 (human) (UniProt Q16539); experiment: Inhibition of LPS-Stimulated TNF-alpha Production in Human Whole Blood
Sequence of MAPK14 (human) (Q16539 whole entry, looked up): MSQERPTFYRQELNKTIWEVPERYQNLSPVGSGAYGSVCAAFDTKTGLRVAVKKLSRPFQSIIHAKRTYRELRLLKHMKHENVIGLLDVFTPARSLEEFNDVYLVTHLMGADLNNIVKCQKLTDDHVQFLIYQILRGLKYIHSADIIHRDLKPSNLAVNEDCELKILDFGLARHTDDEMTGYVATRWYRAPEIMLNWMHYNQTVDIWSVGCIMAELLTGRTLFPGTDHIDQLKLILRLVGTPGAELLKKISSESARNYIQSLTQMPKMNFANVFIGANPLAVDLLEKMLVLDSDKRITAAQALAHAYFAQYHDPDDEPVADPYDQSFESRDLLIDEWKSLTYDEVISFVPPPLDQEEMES

Sequence of MAPK14 (Q16539 whole entry, looked up): as above

CSc1nccc(Nc2cc(NC(=O)c3cc(F)cc(N4CCOCC4)c3)ccc2C)n1
IC50 (MAPK14): 14 nM

COc1cc2ncnc(Nc3cc(NC(=O)c4cccc(N5CCOCC5)c4)ccc3C)c2cc1OCCN1CCCC1
IC50 (MAPK14): 39 nM

COc1cc2ncnc(Nc3cc(NC(=O)c4cccc(N5CCOCC5)c4)ccc3C)c2cc1OCCN(C(C)C)C(C)C
IC50 (MAPK14 (human)): 3500 nM
IC50 (MAPK14): 52 nM

CCCN1CCC(Oc2nccc(Nc3cc(NC(=O)c4ccnc(N5CCOCC5)c4)ccc3C)n2)CC1
IC50 (MAPK14): 55 nM

Cc1ccc(NC(=O)c2ccnc(N3CCOCC3)c2)cc1Nc1ccnc(NCCCN2CCOCC2)n1
IC50 (MAPK14 (human)): > 50000 nM
IC50 (MAPK14): 98 nM

Cc1ccc(NC(=O)c2ccnc(N3CCOCC3)c2)cc1Nc1ccnc(OCC2CCCN(C)C2)n1 (stereo not given)
IC50 (MAPK14): 33 nM

COc1cc2ncnc(Nc3cccc(NC(=O)c4ccccc4)c3)c2cc1OC
IC50 (MAPK14 (human)): > 50000 nM

Cc1ccc(NC(=O)c2ccnc(N3CCOCC3)c2)cc1Nc1ccnc(OC2CCN(C)CC2)n1
IC50 (MAPK14): 45 nM

COc1cc2ncnc(Nc3cc(NC(=O)c4ccccc4)c(Cl)cc3F)c2cc1OC
IC50 (MAPK14 (human)): > 50000 nM

COc1cc2ncnc(Nc3cc(NC(=O)c4cccc(N5CCOCC5)c4)ccc3C)c2cc1OCCN1CCOCC1
IC50 (MAPK14 (human)): 7800 nM
IC50 (MAPK14): 24 nM

Cc1ccc(NC(=O)c2ccnc(N3CCOCC3)c2)cc1Nc1ccnc(NCCCN2CCCC2)n1
IC50 (MAPK14): 58 nM

COc1cc2ncnc(Nc3cc(NC(=O)c4cccc(N5CCOCC5)c4)ccc3C)c2cc1OCCN(C)C
IC50 (MAPK14 (human)): 6900 nM
IC50 (MAPK14): 35 nM

COc1cc2ncnc(Nc3cc(NC(=O)c4ccccc4)ccc3C)c2cc1OC
IC50 (MAPK14): 78 nM

Cc1ccc(NC(=O)c2ccnc(N3CCOCC3)c2)cc1Nc1cc(NCCCN2CCCN(C)CC2)ncn1
IC50 (MAPK14 (human)): > 50000 nM
IC50 (MAPK14): 1220 nM

Cc1ccc(NC(=O)c2ccnc(N3CCOCC3)c2)cc1Nc1cc(Cl)ncn1
IC50 (MAPK14 (human)): > 50000 nM

C=CCN(C)c1nccc(Nc2cc(NC(=O)c3ccnc(N4CCOCC4)c3)ccc2C)n1
IC50 (MAPK14 (human)): > 50000 nM

COc1cc2ncnc(Nc3cccc(NC(=O)c4cccc(N(C)C)c4)c3)c2cc1OC
IC50 (MAPK14 (human)): > 50000 nM

COc1cc2ncnc(Nc3ccc(C)c(NC(=O)c4ccccc4)c3)c2cc1OC
IC50 (MAPK14 (human)): > 50000 nM

COc1cc2ncnc(Nc3cc(NC(=O)c4ccccc4)c(F)cc3F)c2cc1OC
IC50 (MAPK14 (human)): > 50000 nM
IC50 (MAPK14): 54 nM

COc1cc2ncnc(Nc3ccc(Cl)c(NC(=O)c4cccc(N(C)C)c4)c3)c2cc1OC
IC50 (MAPK14 (human)): > 50000 nM

CCCN1CCC(Oc2nccc(Nc3cc(NC(=O)c4cccc(N5CCOCC5)c4)ccc3C)n2)CC1
IC50 (MAPK14): 49 nM

Cc1ccc(NC(=O)c2ccnc(N3CCOCC3)c2)cc1Nc1ccnc(Cl)n1
IC50 (MAPK14): 19 nM

COc1cc2ncnc(Nc3cc(NC(=O)c4cccc(N5CCOCC5)c4)ccc3C)c2cc1OCCN1CCCCC1
IC50 (MAPK14 (human)): 4600 nM
IC50 (MAPK14): 56 nM

COc1cc2ncnc(Nc3cc(NC(=O)c4cccc(N(C)C)c4)ccc3Cl)c2cc1OC
IC50 (MAPK14 (human)): > 50000 nM
IC50 (MAPK14): 47 nM

Cc1ccc(NC(=O)c2ccnc(N3CCOCC3)c2)cc1Nc1ccnc(OCCCN(C)C)n1
IC50 (MAPK14): 37 nM

Cc1ccc(NC(=O)c2ccnc(N3CCOCC3)c2)cc1Nc1cc(NCCCN2CCCC2)ncn1
IC50 (MAPK14 (human)): > 50000 nM

Cc1ccc(NC(=O)c2ccnc(N3CCOCC3)c2)cc1Nc1ccnc(OCC(C)(C)CN(C)C)n1
IC50 (MAPK14): 79 nM

COc1cc2ncnc(Nc3cccc(NC(=O)c4ccccc4)c3F)c2cc1OC
IC50 (MAPK14 (human)): > 50000 nM

COc1cc2ncnc(Nc3cc(NC(=O)c4ccccc4)ccc3Cl)c2cc1OC
IC50 (MAPK14 (human)): > 50000 nM
IC50 (MAPK14): 88 nM

COc1cc2ncnc(Nc3cccc(Cl)c3)c2cc1OC
IC50 (MAPK14 (human)): > 50000 nM

COc1cc2ncnc(Nc3ccc(Cl)c(NC(=O)c4ccccc4)c3)c2cc1OC
IC50 (MAPK14 (human)): > 50000 nM
